Data published in US7034162B2, “Amorphous form of 3-[2-(dimethylamino) ethyl]-N-methyl-1H-indole-5-methane sulfonamide succinate (sumatriptan succinate)” (Dr. Reddy's Laboratories Limited, priority 2000, dated 2006).

Assay: thermal stability of the solid (stated property, no method described)
Format: physicochemical
Conditions: solid amorphous form; test conditions not given

CNS(=O)(=O)Cc1ccc2[nH]cc(CCN(C)C)c2c1.O=C(O)CCC(=O)O [amorphous form of Sumatriptan succinate, 3-[2-(dimethylamino)ethyl]-N-methyl-1H-indole-5-methane sulfonamide succinate]
thermal stability of the solid: thermally stable
